Assay results taken from patent publication US11058734B2, “Probiotic strains having cholesterol absorbing capacity, methods and uses thereof” (BIOSEARCH, S.A., priority 2014, dated 2021).

Tested on: HT-29 enterocytes
Assay: Fluoresterol absorption by HT-29 enterocytes (flow cytometry)
Type: cell-based
Details: Homo sapiens, Ezetimibe at maximum effective concentration 300 μM
Method: HT-29 enterocytes were obtained from the CIC of the University of Granada (Spain) and cultured in DMEM medium supplemented with a 10% (v/v) of FBS, non-essential amino acids and 2 mM L-glutamine; at 37° C. and 5% (v/v) CO2. Cultures for fluoresterol absorption were grown for 14 days using 96-well plates, incubated for 3-4 h with micelles of fluoresterol and bacterial suspensions at 5·10^8 bacteria/mL, or […] Ezetimibe (MSD-SP Ltd) as positive control. Before fluorocytometric assays, HT-29 cultures were disagreggated by trypsin treatment, the medium and free micelles of fluoresterol removed by centrifugation and enterocytes suspended in PBS buffer.
Micelles of fluoresterol, containing 10 mM sodium taurocholate, 6 mM phosphatidylcholine and 0.2 mM fluoresterol were prepared as described by Sparrow et al. (Sparrow et al., 1999, J Lipid Res 40:1747-57). Fluoresterol absorption by bacteria was analyzed incubating bacterial suspensions (5·10^8 bacteria/mL) with micelles (0.1 mg/mL fluoresterol) in PBS buffer at 37° C. […] Finally, bacteria associated fluorescence was determined in a Tecan Genius microplate reader (485 nm excitation, 535 nm emission filters) or in a Beckton Dickinson FACScalibur flow cytometer. […] Absorbed fluoresterol was quantified based on the data of fluorescence (λex: 488 nm; λem: 530 nm) per cell obtained from 2,000 events in each sample. […]

Structure (SMILES): O=C1[C@H](CC[C@H](O)c2ccc(F)cc2)[C@@H](c2ccc(O)cc2)N1c1ccc(F)cc1 [Ezetimibe]
- inhibition at 300 µM: 40%
